Measured values from PMC3348578 (2009).

Columns and labels:
[1] = test system: FAP (purified recombinant FAP; His-tagged FAP lacking the transmembrane domain); test: purified FAP in FAP assay buffer containing 100 mmol/L Tris, 100 mmol/L NaCl; conditions: 37°C, up to 8 h
[2] = test system: DPP4-like protease; test: honeybee venom gland extracts; conditions: cited from earlier work

| Substance | not cleaved [1] | fragment found [2] |
| --- | --- | --- |
| NH2-GIGAVLKVLTTGLPALISWIKRKRQQ-NH2 | not cleaved by FAP |  |
| APEPEPAPEPEAEADAEADPEAGIGAVLKVLTTGLPALISWIKRKRQQ-NH2 |  | 11 dipeptide fragments |
